This note sets out measurements from patent US20110172098A1, “Imidazole and Triazole Compounds, Their Use and Agents Containing the Same” (priority 2008, published 2011).

The subject of one assay is Septoria tritici. The experiment in a line: Activity against the Septoria leaf blotch pathogen Septoria tritici in the microtiter test (M2 / C2). The format is cell-based. Conditions: comparison with the prior art, day 7. How it is done:
(§1) Leaves of soybean seedlings grown in pots were inoculated with a spore suspension of soybean rust (Phakopsora pachyrhizi). The pots were then placed in a chamber of high atmospheric humidity (90 to 95%) and 23 to 27° C. for 24 hours. During this time, the spores germinated and the germ tubes penetrated into the leaf tissue. The infected plants were then cultivated further in a greenhouse at temperatures between 23 and 27° C. and 60 to 80% relative atmospheric humidity. After two days, the plants were sprayed to runoff point with the active compound solution described above at the active compound concentration indicated below. After the spray coating had dried on, the test plants were cultivated in a greenhouse at temperatures between 23 and 27° C. and 60 to 80% relative atmospheric humidity for a further 10 days. The extent of the rust fungus development on the leaves was then determined visually in % of infection. […] B) Micro test The active compounds were formulated separately as a stock solution having a concentration of 10 000 ppm in DMSO.
The stock solution was pipetted into a microtiter plate (MTP) and diluted with water to the stated active compound concentration. […] Using an absorption photometer, the MTPs were measured at 405 nm on day 7 after the inoculation. The measured parameters were compared to the growth of the active compound-free control variant (100%) and the fungus- and active compound-free blank value to determine the relative growth in % of the pathogens in the individual active compounds. […]
(§2) The active compounds were formulated separately as a stock solution having a concentration of 10 000 ppm in DMSO. […] Using an absorption photometer, the MTPs were measured at 405 nm on day 7 after the inoculation. The measured parameters were compared to the growth of the active compound-free control variant and the fungus- and active compound-free blank value to determine the relative growth in % of the pathogens in the individual active compounds. […] […]

Another assay relates to Botrytis cinerea. In words: Activity against the gray mold pathogen Botrytis cinerea in the microtiter test (M1 / C1). The class given is cell-based. Conditions: comparison with the prior art, day 7. How it is done: as §1
The stock solution was pipetted into a microtiter plate (MTP) and diluted with water to the stated active compound concentration. […] Using an absorption photometer, the MTPs were measured at 405 nm on day 7 after the inoculation. The measured parameters were compared to the growth of the active compound-free control variant and the fungus- and active compound-free blank value to determine the relative growth in % of the pathogens in the individual active compounds.
as §2

Take `Cc1ccc(CCC(C(O)C(C)(C)C)n2cncn2)cc1` (stereo not drawn): the “Growth (%) at 31 ppm of C2” value in the assay with Septoria tritici is recorded as 4%. The “Growth (%) at 31 ppm of C1” value in the assay with Botrytis cinerea was determined as 4%.

On to `Cc1ccc(C(C)CC(C(O)C(C)(C)C)n2cncn2)cc1` (stereo not drawn), for which, in the assay on Septoria tritici, the “Growth (%) at 31 ppm of C2” value is on record as 3%. Further, the “Growth (%) at 31 ppm of C1” value in the assay with Botrytis cinerea was found to be 0%.

Regarding `CC(C)(C)C(O)C(CCc1ccccc1)n1cncn1` (stereo not drawn) [reference compound], the “Growth (%) at 31 ppm of C2” value in the assay on Septoria tritici was 100%. In the assay with Botrytis cinerea, the “Growth (%) at 31 ppm of C1” value came to 81%.
